Results: patent EP3418270A1, “NOVEL BIPHENYLSULFOXIMINES AS ALLOSTERIC MODULATORS OF THE DOPAMINE D1 RECEPTOR” (Universidad Complutense De Madrid, priority 2017, dated 2018)
pEC50: −log10 of the molar value. Each block holds one compound with its values, some of them ahead of it.

Experiments:
[1] = target: T1, human dopamine D1 receptor (Homo sapiens, UniProt P21728); assay: Agonist effect at human dopamine D1 receptors: cAMP (HTRF) in SK-N-MC cells without dopamine; type: cell-based; set-up: endogenously expressed human D1 receptors in SK-N-MC cell line; host or cells: SK-N-MC human neuroblastoma cells; details: in the absence of dopamine, cAMP (Figure 2)
Protocol: (§1) SK-N-MC cells seeded into a black 96-well plate (1×10^4 cells/well) in Optimem containing 500 µM IBMX were treated with the test compounds for 15 min at 25°C. Treated cells were lysed and the cAMP concentration was measured by homogeneous time-resolved fluorescence energy transfer (HTRF; Cisbio Kit). HTRF was read in a Tecan M1000 Genius Pro reader (λexcitation = 320 nm, λemission = 620 nm and 665 nm, 30 flashes).
(§2) Data were normalized to dopamine maximum effect and fitted to a 4-parameter logistic equation Prism v2.1 (GraphPad Inc).

human D1 receptors = target: T2, human D1 receptors (Homo sapiens, UniProt P21728); assay: Allosteric modulation of human dopamine D1 receptors: dopamine-induced cAMP production (HTRF) in SK-N-MC cells; type: cell-based; details: for Potentiation (%) at 5 µM / Potentiation (%) at 10 µM: potentiation of dopamine Emax; for Potentiation (%) at 5 µM: compound at 5 µM (values marked *); for Potentiation (%) at 10 µM: compound at 10 µM
T2 construct: endogenously expressed human D1 receptors in SK-N-MC cell line; host or cells: SK-N-MC human neuroblastoma cells
Protocol: Functional studies at human D1 receptors were carried out in endogenously expressed human D1 receptors in SK-N-MC cell line (ATCC). SK-N-MC cells were thawed and seeded into a black 96-well plate (1×10^4 cells/well) in Optimem containing 500 µM IBMX.
as §1, with “Cells” for “SK-N-MC cells seeded into a black 96-well plate (1×10^4 cells/well) in Optimem containing 500 µM IBMX”, “for 15 min at 25°C and dopamine was added to the corresponding wells and incubated for additional” for “for”
as §2
If the observed effect is dose-dependent, compounds were then tested in the cAMP assay, this time maintaining a fixed concentration of dopamine (=EC70) while increasing the concentration of the compound, and the potentiation of the dopamine effect was measured.

human D4 receptors = target: T3, human D4 receptors (Homo sapiens, UniProt P21917); assay: Functional assay at human D4 receptors: PatHunter Beta-arrestin express GPCR assay; type: cell-based; details: beta-arrestin translocation, Figure 5
T3 sequence (P21917 1-419): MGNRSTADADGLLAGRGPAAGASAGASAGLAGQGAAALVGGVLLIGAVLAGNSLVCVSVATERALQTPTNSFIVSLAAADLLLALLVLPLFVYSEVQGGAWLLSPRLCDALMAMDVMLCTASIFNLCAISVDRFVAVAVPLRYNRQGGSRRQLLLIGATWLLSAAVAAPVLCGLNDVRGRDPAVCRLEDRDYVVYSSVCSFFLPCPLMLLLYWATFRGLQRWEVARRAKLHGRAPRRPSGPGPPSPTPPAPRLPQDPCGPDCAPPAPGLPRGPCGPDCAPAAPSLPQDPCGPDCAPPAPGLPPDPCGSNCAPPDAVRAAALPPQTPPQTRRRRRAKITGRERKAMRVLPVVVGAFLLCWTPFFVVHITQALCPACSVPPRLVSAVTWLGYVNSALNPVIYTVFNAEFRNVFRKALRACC
Protocol: (§3) Functional studies at both human D3 and D4 receptors receptors were carried by employing a PatHunter Beta-arrestin express GPCR assay kit from DiscoverX. Cells were plated maintained for 48 h at 37°C in a 5% CO2 atmosphere in cell plating reagen t provided in the kit.
(§4) Cells were treated with the test compounds for 30 min at 37°C and dopamine was added to the corresponding wells and incubated for additional 90 min at 37°C. Cells were then treated with the working detection solution provided with the kit for 1 h and beta-arrestin translocation was measured by luminescence detection (integration time=500 ms) in a Tecan M1000 Genius Pro reader.
as §2

[2] = target: T1, human dopamine D1 receptor; assay: Radioligand binding assay at human D1 receptors ([3H]SCH23390 displacement, membranes); set-up: purchased Perkin Elmer; details: 0.7 nM [3H]SCH23390, orthosteric site
Protocol: Assays were carried out by using plasma membranes (12 µg/well) expressing human dopamine D1 receptor (Perkin Elmer). Membranes were incubated in a Multiscreen FC 96-well plate (Millipore) with 0.7 nM [^3H]SCH23390 (Perkin Elmer) and increasing amounts of the test compound in assay buffer (50 mM Tris-HCl, 5 mM MgCl2; pH=7.4) for 1 h at 27°C. After this time the well content was filtered through a Millipore manifold and membranes washed 4 times with assay buffer. Plate was dried and radioactivity was measured in a Microbeta Trilux liquid scintillation reader (Perkin-Elmer). Non-specific binding was determined in the presence of 1 µM (+)-butaclamol.
Data were normalized to percentage of specific binding and fitted to a 4-parameter logistic equation with Prism v2.1 (GraphPad Inc).

human D5 receptors = human D5 receptors (Homo sapiens, UniProt P21918); assay: Functional assay at human D5 receptors: cAMP Hunter express DRD5 assay; type: cell-based; details: cAMP formation, Figure 6
Protocol: Functional studies at human D5 receptors receptors were carried by employing a cAMP Hunter express DRD5 assay kit from DiscoverX. Cells were plated maintained for 24 h at 37°C in a 5% CO2 atmosphere in cell plating reagent provided in the kit.
as §4, with “15” for “30”, “30” for “90”, “cAMP” for “working”, “then cAMP solution A was added to each well and incubated for 3 h at RT. cAMP formation” for “beta-arrestin translocation”
as §2

human D3 receptors = human D3 receptors (Homo sapiens, UniProt P35462); assay: Functional assay at human D3 receptors: PatHunter Beta-arrestin express GPCR assay; type: cell-based; details: beta-arrestin translocation, Figure 4
Protocol: as §3, §4, §2

[3] = target: T4, recombinant human D2 receptors (Homo sapiens, UniProt P14416); assay: Functional assay at human D2 receptors: cAMP (HTRF), forskolin-stimulated CHO cells; type: cell-based; details: Figure 3
T4 construct: expressed in transfected cells; host or cells: CHO cell line, stably transfected in-house
Protocol: Functional studies at D2 receptors were carried out in recombinant human D2 receptors stably transfected in-house in a CHO cell line. Cells were thawed and seeded into a 96-well plate (5×10^3 cells/well) in Optimem containing 500 µM IBMX.
Cells were treated with the test compounds for 5 min at 37°C and dopamine was added to the corresponding wells and incubated for additional 10 min at 37°C. After this time cells were treated with 10 µM forskolin for 5 min at 37°C. Treated cells were lysed and the cAMP concentration was measured by homogeneous time-resolved fluorescence energy transfer (HTRF; Cisbio Kit). HTRF was read in a Tecan M1000 Genius Pro reader (λexcitation = 320 nm, λemission = 620 nm and 665 nm, 30 flashes).
as §2

T4 sequence (P14416 whole entry): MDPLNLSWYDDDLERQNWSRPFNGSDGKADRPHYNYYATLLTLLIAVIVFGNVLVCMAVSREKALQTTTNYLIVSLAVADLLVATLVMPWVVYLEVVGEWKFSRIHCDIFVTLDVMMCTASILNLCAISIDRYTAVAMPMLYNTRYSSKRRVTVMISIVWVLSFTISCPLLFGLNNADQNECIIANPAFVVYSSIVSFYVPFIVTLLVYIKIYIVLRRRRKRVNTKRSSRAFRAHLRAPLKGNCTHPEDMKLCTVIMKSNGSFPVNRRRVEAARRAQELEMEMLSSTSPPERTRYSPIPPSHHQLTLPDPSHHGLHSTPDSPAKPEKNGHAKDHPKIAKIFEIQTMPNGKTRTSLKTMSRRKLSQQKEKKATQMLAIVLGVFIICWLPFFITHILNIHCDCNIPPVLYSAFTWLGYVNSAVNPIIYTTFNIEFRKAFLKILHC
Sequence of human D3 receptors (P35462 whole entry): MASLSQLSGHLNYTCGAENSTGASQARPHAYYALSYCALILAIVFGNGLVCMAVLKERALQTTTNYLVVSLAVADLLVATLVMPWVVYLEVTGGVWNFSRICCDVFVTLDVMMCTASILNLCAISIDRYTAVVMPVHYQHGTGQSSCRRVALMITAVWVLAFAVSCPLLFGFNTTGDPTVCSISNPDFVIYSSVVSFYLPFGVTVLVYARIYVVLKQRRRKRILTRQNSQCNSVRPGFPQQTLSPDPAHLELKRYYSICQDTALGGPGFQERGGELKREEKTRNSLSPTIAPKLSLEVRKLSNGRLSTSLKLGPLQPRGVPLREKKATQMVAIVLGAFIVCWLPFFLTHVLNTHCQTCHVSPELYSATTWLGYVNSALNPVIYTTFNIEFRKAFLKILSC
T2 sequence (P21728 whole entry): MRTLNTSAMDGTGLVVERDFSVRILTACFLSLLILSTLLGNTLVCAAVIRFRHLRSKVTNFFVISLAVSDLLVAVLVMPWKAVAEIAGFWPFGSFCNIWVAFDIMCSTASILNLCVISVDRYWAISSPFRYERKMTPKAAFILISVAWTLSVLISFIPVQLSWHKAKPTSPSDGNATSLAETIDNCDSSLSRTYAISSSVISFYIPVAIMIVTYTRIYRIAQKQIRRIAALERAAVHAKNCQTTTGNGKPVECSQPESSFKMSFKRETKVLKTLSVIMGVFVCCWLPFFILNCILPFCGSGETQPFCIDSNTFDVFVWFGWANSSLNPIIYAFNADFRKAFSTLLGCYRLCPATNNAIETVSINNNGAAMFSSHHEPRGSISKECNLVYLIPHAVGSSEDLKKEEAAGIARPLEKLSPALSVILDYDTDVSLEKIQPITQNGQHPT
T1 sequence (P21728 whole entry): as above
Sequence of human D5 receptors (P21918 whole entry): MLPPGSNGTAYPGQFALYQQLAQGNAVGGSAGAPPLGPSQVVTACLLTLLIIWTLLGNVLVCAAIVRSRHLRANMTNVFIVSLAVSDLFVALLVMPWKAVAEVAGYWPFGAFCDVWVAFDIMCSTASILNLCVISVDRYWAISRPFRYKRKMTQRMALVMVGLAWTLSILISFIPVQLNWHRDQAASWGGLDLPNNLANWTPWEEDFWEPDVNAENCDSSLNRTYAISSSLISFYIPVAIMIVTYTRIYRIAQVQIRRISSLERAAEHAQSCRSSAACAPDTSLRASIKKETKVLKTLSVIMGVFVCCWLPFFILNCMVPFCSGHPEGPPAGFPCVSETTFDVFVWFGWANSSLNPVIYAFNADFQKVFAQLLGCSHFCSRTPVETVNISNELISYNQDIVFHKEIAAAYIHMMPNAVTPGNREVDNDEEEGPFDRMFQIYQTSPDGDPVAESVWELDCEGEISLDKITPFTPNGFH

Compound: CS(=N)(=O)c1ccc(-c2ccccc2OC(F)F)cc1 (stereo not drawn) [Ia, 2-(Difluoromethoxy)-4'-(S-methylsulfonimidoyl)biphenyl]
Potentiation (%) at 10 µM (human D1 receptors): 27%

Compound: CN=S(C)(=O)c1ccc(-c2ccccc2OC(F)F)cc1 (stereo not drawn) [Ib, 2-(Difluoromethoxy)-4'-(N,S-dimethylsulfonimidoyl)biphenyl]
Potentiation (%) at 10 µM (human D1 receptors): 64%

Compound: CCS(=N)(=O)c1ccc(-c2ccccc2OC(F)F)cc1 (stereo not drawn) [Ic, 2-(Difluoromethoxy)-4'-(S-ethylsulfonimidoyl)biphenyl]
Potentiation (%) at 10 µM (human D1 receptors): 39%

Compound: CS(=N)(=O)c1ccc(-c2ccccc2OC(F)F)cc1Cl (stereo not drawn) [Id, 3'-Chloro-2-(difluoromethoxy)-4'-(S-methylsulfonimidoyl)biphenyl]
Potentiation (%) at 10 µM (human D1 receptors): 25%

Compound: CN=S(C)(=O)c1ccc(-c2ccccc2OC(F)F)cc1Cl (stereo not drawn) [Ie, 3'-Chloro-2-(difluoromethoxy)-4'-(N,S-dimethylsulfonimidoyl)biphenyl]
Potentiation (%) at 10 µM (human D1 receptors): 33%

Compound: CS(=N)(=O)c1ccc(-c2ccccc2OC(F)(F)F)cc1Cl (stereo not drawn) [If, 3'-Chloro-4'-(S-methylsulfonimidoyl)-2-(trifluoromethoxy)biphenyl]
Potentiation (%) at 10 µM (human D1 receptors): 30%

Compound: CN=S(C)(=O)c1ccc(-c2ccccc2OC(F)(F)F)cc1Cl (stereo not drawn) [Ig, 3'-Chloro-2-(trifluoromethoxy)-4'-(N,S-dimethylsulfonimidoyl)biphenyl]
Potentiation (%) at 10 µM (human D1 receptors): 27%

Compound: CN=S(C)(=O)c1ccc(-c2ccccc2OCF)cc1 (stereo not drawn) [Ih, 4'-(N,S-Dimethylsulfonimidoyl)-2-(fluoromethoxy)biphenyl]
Potentiation (%) at 10 µM (human D1 receptors): 30%

Compound: CN=S(C)(=O)c1ccc(-c2ccccc2OCF)cc1Cl (stereo not drawn) [Ij, 3'-Chloro-2-(fluoromethoxy)-4'-(N,S-dimethylsulfonimidoyl)biphenyl]
Potentiation (%) at 10 µM (human D1 receptors): 35%

Second part, the compound after the results:

intrinsic agonist activity [1]: no potentiation
pEC50 (human D1 receptors; potency in the presence of dopamine (fixed concentration = EC70)): 7.22
Potentiation (%) at 5 µM (human D1 receptors): 35%
Potentiation (%) at 10 µM (human D1 receptors): 55%
functional subtype selectivity against D4 receptor (human D4 receptors): functional subtype selectivity
inhibition at 10 µM [2]: 36%
functional subtype selectivity against D5 receptor (human D5 receptors): functional subtype selectivity
functional subtype selectivity against D3 receptor (human D3 receptors): functional subtype selectivity
functional subtype selectivity against dopamine D2 receptor [3]: functional subtype selectivity
Compound: CS(=N)(=O)c1ccc(-c2ccccc2OCF)cc1 (racemic) [Ik, 2-(Fluoromethoxy)-4'-(S-methylsulfonimidoyl)biphenyl]

intrinsic agonist activity [1]: no potentiation
Potentiation (%) at 5 µM (human D1 receptors): 63%
functional subtype selectivity against D4 receptor (human D4 receptors): functional subtype selectivity
inhibition at 10 µM [2]: 12%
functional subtype selectivity against D5 receptor (human D5 receptors): functional subtype selectivity
functional subtype selectivity against D3 receptor (human D3 receptors): functional subtype selectivity
functional subtype selectivity against dopamine D2 receptor [3]: functional subtype selectivity
Compound: C[S@@](=N)(=O)c1ccc(-c2ccccc2OCF)cc1 [(R)-Ik, (R)-2-(Fluoromethoxy)-4'-(S-methylsulfonimidoyl)biphenyl]

intrinsic agonist activity [1]: no potentiation
Potentiation (%) at 5 µM (human D1 receptors): 47%
functional subtype selectivity against D4 receptor (human D4 receptors): functional subtype selectivity
inhibition at 10 µM [2]: 6%
functional subtype selectivity against D5 receptor (human D5 receptors): functional subtype selectivity
functional subtype selectivity against D3 receptor (human D3 receptors): functional subtype selectivity
functional subtype selectivity against dopamine D2 receptor [3]: functional subtype selectivity
Compound: C[S@](=N)(=O)c1ccc(-c2ccccc2OCF)cc1 [(S)-Ik, (S)-2-(Fluoromethoxy)-4'-(S-methylsulfonimidoyl)biphenyl]

Potentiation (%) at 10 µM (human D1 receptors): 54%
Compound: CCS(=N)(=O)c1ccc(-c2ccccc2OCF)cc1 (stereo not drawn) [Ii, 2-(Fluoromethoxy)-4'-(S-ethylsulfonimidoyl)biphenyl]
